Data set [1] deals with T1, human neprilysin (EC 3.4.24.11; NEP) (Homo sapiens, UniProt P08473).
T1 construct: purchased R&D Systems 1182-ZN
Briefly: In vitro assay for the quantitation of inhibitor potency at human NEP. The data set is classed as biochemical. The note with it: recombinant human NEP, fluorogenic peptide substrate 10 μM, 37° C.; read-out: pKi at human NEP (converted). On the procedure: The inhibitory activity at human neprilysin (EC 3.4.24.11; NEP) was determined as follows.
Recombinant human NEP was obtained commercially (R&D Systems, Minneapolis, Minn., catalog number 1182-ZN). The fluorogenic peptide substrate Mca-D-Arg-Arg-Leu-Dap-(Dnp)-OH (Medeiros et al. (1997) Braz. J. Med. Biol. Res. 30:1157-62; Anaspec, San Jose, Calif.) was used.
The assay was performed in 384-well white opaque plates at 37° C. using the fluorogenic peptide substrate at a concentration of 10 μM in Assay Buffer (50 mM HEPES, pH 7.5, 100 mM NaCl, 0.01% polyethylene glycol sorbitan monolaurate (Tween-20), 10 μM ZnSO4).
Test compounds were assayed over the range of concentrations from 10 μM to 20 pM. Test compounds were added to the enzyme and incubated for 30 minute at 37° C. prior to initiating the reaction by the addition of substrate. Reactions were terminated after 20 minutes of incubation at 37° C. by the addition of glacial acetic acid to a final concentration of 3.6% (v/v).
Plates were read on a fluorometer with excitation and emission wavelengths set to […]. Inhibition constants were obtained by nonlinear regression of the data using the equation (GraphPad Software, Inc., San Diego, Calif.): v=v0/[1+(I/K′)] where v is the reaction rate, v0 is the uninhibited reaction rate, I is the inhibitor concentration and K′ is the apparent inhibition constant.
The compounds were tested in this assay and found to have pKi values at human NEP as follows.

Data set [2] can be described thus: IV/PO pharmacokinetic study in dogs. The format is in vivo, male beagle dogs. Further details: AUC(0-t): concentration or dose not given beside the values. The note with it: dog; for AUC(0-t) / bioavailability: male, beagle, plasma; for AUC(0-t): read-out: AUClast Mean; for bioavailability: PO vs IV AUClast. How it is done:
(§1) Each rat or dog PK study began with formulation of the test compound. Appropriate masses of each test compound were added into a volume of vehicle (e.g. 5% sodium bicarbonate, 5% dextrose in H2O) such that the final concentration of each compound was appropriate to be dosed at 2 mL/kg. Although a homogenous suspension were acceptable for oral dosing, intravenous dosing solutions were sterile-filtered (0.2 μm) prior to dosing to ensure no particulates were administered.
In the dog study, male beagle dogs (3 per route) housed at Agilux Laboratories (Worcester, Mass.) and weighing between 7-12 kg received either a single oral gavage or a single intravenous (via indwelling catheter) dose of the dosing solution. The final dose was typically 0.1-2 mg/kg. Serial blood samples were harvested via direct venipuncture at 3 minutes, 15 minutes, 30 minutes, 1 hour, 2 hours, 4 hours, 6 hours, 8 hours, 12 hours, and 24 hours post-dose. All samples were collected manually into microtainer tubes containing EDTA as the anticoagulant and were processed to plasma by refrigerated centrifugation.
(§2) Plasma samples were extracted with 3 volumes of MeCN containing a suitable internal standard. Extracts were reconstituted into 3 volumes of water containing 1% formic acid, and analyzed via HPLC-coupled MS/MS. Plasma concentration-time data were analyzed using the Phoenix software (Pharsight Corp., St. Louis, Mo.) to calculate pharmacokinetic parameters.
(§3) Plasma clearance was determined from the intravenous arm of the study, and represents the rate at which plasma is cleared of drug. It is equal to the dose divided by the area under the plasma concentration-time curve. In addition to plasma clearance, it is also essential for an orally administered drug to reach efficacious systemic levels following oral delivery. Oral bioavailability is a measurement of plasma exposures following oral administration relative to exposures following intravenous administration.

A short description of data set [3]: IV/PO pharmacokinetic study in rats. The format is in vivo, male Sprague-Dawley rats. Also noted: AUC(0-t): concentration or dose not given beside the values. The note with it: rat; for AUC(0-t) / bioavailability: male, Sprague-Dawley, plasma; for AUC(0-t): read-out: AUClast Mean; for bioavailability: PO vs IV AUClast; for CLlast Mean: dose divided by AUClast. How it is done: as §1
In the rat study, pre-cannulated male Sprague-Dawley rats (3 per route) between 8 and 10 weeks of age were obtained from Harlan Laboratories (Indianapolis, Ind.). Rats received either a single oral gavage or a single intravenous (via lateral tail vein) dose of the dosing solution. The final dose was typically 0.5-3 mg/kg. Serial blood samples were harvested via the cannula implanted in the jugular vein at 3 minutes, 15 minutes, 30 minutes, 1 hour, 2 hours, 4 hours, 6 hours, and 24 hours post-dose. Sampling was performed either manually or using automated blood samplers. Samples were collected into microtainer tubes containing EDTA as the anticoagulant and were processed to plasma by refrigerated centrifugation.
as §2, §3

In data set [4] the target is T2, NEP (Rattus norvegicus, UniProt P07861).
T2 construct: Pre-cannulated male Sprague-Dawley rats (3 per compound evaluated) between 8 and 10 weeks of age were obtained from Harlan Laboratories; from tissue; host or cells: whole animal: conscious male Sprague-Dawley rats (Harlan Laboratories)
T2 sequence (P07861 1-750): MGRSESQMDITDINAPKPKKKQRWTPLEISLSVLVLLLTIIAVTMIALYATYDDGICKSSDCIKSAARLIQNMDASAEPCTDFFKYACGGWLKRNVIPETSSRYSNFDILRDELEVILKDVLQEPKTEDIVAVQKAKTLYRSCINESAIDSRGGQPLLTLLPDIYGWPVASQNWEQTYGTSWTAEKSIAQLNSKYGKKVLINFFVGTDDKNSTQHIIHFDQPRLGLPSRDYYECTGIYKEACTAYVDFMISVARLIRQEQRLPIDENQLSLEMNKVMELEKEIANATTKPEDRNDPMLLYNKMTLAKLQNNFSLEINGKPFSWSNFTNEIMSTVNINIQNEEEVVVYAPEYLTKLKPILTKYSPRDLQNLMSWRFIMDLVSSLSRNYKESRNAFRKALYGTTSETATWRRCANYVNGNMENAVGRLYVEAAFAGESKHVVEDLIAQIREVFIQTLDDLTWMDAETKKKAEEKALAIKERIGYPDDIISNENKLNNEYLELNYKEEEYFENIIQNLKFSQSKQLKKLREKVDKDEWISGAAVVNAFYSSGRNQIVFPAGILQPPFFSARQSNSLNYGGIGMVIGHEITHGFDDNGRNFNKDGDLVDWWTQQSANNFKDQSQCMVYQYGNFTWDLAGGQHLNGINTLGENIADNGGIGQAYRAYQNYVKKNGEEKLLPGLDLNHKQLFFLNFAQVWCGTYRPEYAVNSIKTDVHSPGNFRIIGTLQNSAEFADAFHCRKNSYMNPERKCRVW
Briefly: PK-PD assay for NEP activity in conscious normotensive Sprague-Dawley rats (plasma cGMP after ANP bolus). The note with it: rat plasma, 3 mg/kg oral, 15 min after IV ANP bolus (30 μg/kg); average of three determinations. The format is in vivo, male Sprague-Dawley rats. On the procedure: Appropriate masses of each test compound were added into a volume of vehicle (e.g. 5% sodium bicarbonate, 5% dextrose in H2O) such that the final concentration of each compound was appropriate to be dosed at 2 mL/kg. Note that a homogenous suspension was deemed to be acceptable for oral dosing.
Pre-cannulated male Sprague-Dawley rats (3 per compound evaluated) between 8 and 10 weeks of age were obtained from Harlan Laboratories (Indianapolis, Ind.). Rats received a single oral gavage of the dosing solution. The final dose was typically in the range of 3-30 mg/kg. Serial blood samples were harvested via the cannula implanted in the jugular vein at 3 minutes, 15 minutes, 35 minutes, 45 minutes, 1 hour, 2 hours, 4 hours, 6 hours, and 24 hours post-dose. Samples were collected into microtainer tubes containing EDTA as the anticoagulant and were processed to plasma by refrigerated centrifugation. Fifteen minutes prior to the 45 minute, 2 hour, 4 hour, 6 hour, and 24 hour samples, an IV bolus (30 μg/kg) of Atrial Natriuretic Peptide (ANP) was administered. […] Since binding of ANP to its receptor leads to activation of guanylyl cyclase and subsequent production of cyclic guanosine monophosphate (cGMP), the observation of elevated levels of cGMP (>20 nM) in plasma 15 minutes after the IV administration of the ANP bolus was interpreted as evidence of ongoing neprilysin inhibition. Elevated levels plasma cGMP levels 24 hours after dosing is an indicator of the duration pharmacologic effect, analogous to plasma clearance values as indicators of pharmacokinetic persistence.
Plasma samples were extracted with 3 volumes of MeCN containing a suitable internal standard. Extracts were reconstituted into 3 volumes of water containing 1% formic acid. Plasma cGMP and test compound concentrations were quantified in plasma samples by HPLC-coupled mass spectrometric detection.

Data set [5] in a line: Dynamic moisture sorption (DMS) assessment. The format is physicochemical. How it is done:
DMS measurements were performed using a VTI atmospheric microbalance, SGA-100 system (VTI Corp., Hialeah, Fla. 33016). A weighed sample was used and the humidity was lowest possible value (close to 0% relative humidity) at the start of the analysis. The DMS analysis consisted of a scan rate of 5% relative humidity/step over the full humidity range of 5-90%. The DMS run was performed isothermally at 25° C.

T1 sequence (P08473 52-750 limits assumed): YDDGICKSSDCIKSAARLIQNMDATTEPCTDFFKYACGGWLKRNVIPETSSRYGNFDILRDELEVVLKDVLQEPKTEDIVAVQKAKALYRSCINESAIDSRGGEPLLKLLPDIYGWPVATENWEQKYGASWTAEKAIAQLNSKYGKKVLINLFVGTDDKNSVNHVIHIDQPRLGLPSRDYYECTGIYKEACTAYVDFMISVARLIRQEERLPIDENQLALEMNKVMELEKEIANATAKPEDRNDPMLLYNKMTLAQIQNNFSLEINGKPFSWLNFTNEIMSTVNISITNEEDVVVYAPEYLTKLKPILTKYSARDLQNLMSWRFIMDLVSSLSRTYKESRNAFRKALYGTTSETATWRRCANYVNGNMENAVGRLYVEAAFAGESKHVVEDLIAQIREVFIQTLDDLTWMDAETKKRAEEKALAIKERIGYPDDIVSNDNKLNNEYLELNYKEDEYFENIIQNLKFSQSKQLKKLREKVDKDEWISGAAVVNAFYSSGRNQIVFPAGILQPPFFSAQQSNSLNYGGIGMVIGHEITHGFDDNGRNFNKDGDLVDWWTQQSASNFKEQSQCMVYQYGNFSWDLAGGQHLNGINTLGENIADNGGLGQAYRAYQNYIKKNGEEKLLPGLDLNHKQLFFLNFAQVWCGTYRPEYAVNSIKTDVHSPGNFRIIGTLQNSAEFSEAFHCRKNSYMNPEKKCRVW

One may read the bioavailability as dose-corrected exposure relative to a reference, in per cent. Regarding `COc1cc(C(=O)N[C@H](Cc2ccc(-c3cc(Cl)ccc3F)cc2)C[C@@H](O)C(=O)O)on1` [Comparison Compound C2, (2R,4R)-5-(5′-Chloro-2′-fluorobiphenyl-4-yl)-2-hydroxy-4-[(3-methoxyisoxazole-5-carbonyl)amino]pentanoic Acid], in data set [1], the Ki was 126 pM. Also, the “CLlast Mean” value in data set [2] (IV) is 10.8 mL/min/kg; in data set [3] (IV), 28.3 mL/min/kg. Also, the AUC(0-t) turned out to be 160 ng·h/mL in data set [2] (IV), 160 ng·h/mL in data set [2] (PO), 480 ng·h/mL in data set [3] (IV) and 110 ng·h/mL in data set [3] (PO). For the same compound, the results for the bioavailability in data set [2] and in data set [3] were 99% and 20%, respectively. Also, the “cGMP Concentration 24 hours After Dosing Mean” value in data set [4] is 45 nM.

On to `CCc1ncc(C(=O)N[C@H](Cc2ccc(-c3cc(Cl)ccc3F)cc2)C[C@@H](C)C(=O)O)o1` [Comparison Compound C3, (2R,4S)-5-(5′-Chloro-2′-fluorobiphenyl-4-yl)-4-[(2-ethyloxazole-5-carbonyl)amino]-2-methylpentanoic Acid], for which the Ki in data set [1] is 794 pM. Moreover, the results for the “CLlast Mean” value in data set [2] (IV) and in data set [3] (IV) were 9.83 mL/min/kg and 10 mL/min/kg, respectively. In addition, the AUC(0-t) in data set [2] (IV) is 170 ng·h/mL; in data set [2] (PO) it was 130 ng·h/mL; in data set [3] (IV), 1500 ng·h/mL; in data set [3] (PO) it was 880 ng·h/mL. The bioavailability in data set [2] is 64%; in data set [3] it was 60%. Moreover, in data set [4], the “cGMP Concentration 24 hours After Dosing Mean” value is listed as 47 nM.

For the compound `C[C@H](C[C@@H](Cc1ccc(-c2cc(Cl)ccc2F)cc1)NC(=O)c1cnco1)C(=O)O` [Comparison Compound C4, (2R,4S)-5-(5′-Chloro-2′-fluorobiphenyl-4-yl)-2-methyl-4-[(oxazole-5-carbonyl)amino]pentanoic Acid], the Ki in data set [1] is 501 pM. Further, the “CLlast Mean” value in data set [2] (IV) was determined as 25.7 mL/min/kg; in data set [3] (IV), 11.2 mL/min/kg. Moreover, the AUC(0-t) in data set [2] (IV) stood at 70 ng·h/mL; in data set [2] (PO), 30 ng·h/mL; in data set [3] (IV), 830 ng·h/mL; in data set [3] (PO) it was 500 ng·h/mL. The bioavailability in data set [2] came out at 42%; in data set [3] it was 60%. Further, the “cGMP Concentration 24 hours After Dosing Mean” value in data set [4] is 53 nM.

Turning to `Cc1cnc(C(=O)N[C@H](Cc2ccc(-c3cc(Cl)ccc3F)cc2)C[C@@H](O)C(=O)O)o1` [Compound 1′, (2R,4R)-5-(5′-Chloro-2′-fluorobiphenyl-4-yl)-2-hydroxy-4-[(5-methyloxazole-2-carbonyl)amino]pentanoic Acid], the total moisture gain result in data set [5] (5-70% relative humidity, 25° C.) was “less than 0.025 % by weight”; in data set [5] (5-90% relative humidity, 25° C.), “less than 0.235 % by weight”. Further, the “hygroscopicity (DMS isotherm)” value in data set [5] (25° C.) is given as “non-hygroscopic solid”. Further, in data set [5] (after two sorption-desorption cycles), the “solid form (PXRD) after sorption-desorption cycles” value is reported as “no change in form”.

Source of the values: patent publication US11642332B2, “(2R,4R)-5-(5′-chloro-2′-fluorobiphenyl-4-yl)-2-hydroxy-4-[(5-methyloxazole-2-carbonyl)amino]pentanoic acid” (THERAVANCE BIOPHARMA R&D IP, LLC, priority 2015, dated 2023).
